Assay results as given in patent publication US11873321B2, “Compositions and methods for treating alzheimer's disease” (Generos Biopharma Ltd., priority 2017, dated 2024).

How the values were obtained:
[1] = tested on: APP over-expression SH-SY5Y cell line; experiment: Western blot of APP in cell lysate and in exosomes purified from the medium after 25-OHC treatment; format: cell-based, human; conditions: different dosage of 25-OHC
Experimental: (§1) FIGS. 8A-8C show graphs and images depicting that treatment with 25-OHC decreased exosomal APP but increases intracellular APP. SH-SY5Y cells with APP over-expression were treated with different dosage of 25-OHC.
(§2) SH-SY5Y cells over-express human APP were cultured in DMEM with 10% FBS. One day before exosome preparation, medium was changed to blank DMEM to avoid the contamination of serum exosomes. 24 hour after medium change, the mediums were collected, and spin at 200 g for 5 min to pellet down floating cells. The cell free medium was further centrifuged at 100,000 g for 1 h at 4° C., and the pellet containing exosomes was dissolved in RIPA buffer
We used APP over-expression SH-SY5Y cell line to further check if the difference in exosomal APP is due to 25-OHC. Cells were treated with different dosage of 25-OHC and both cell lysate and exosomes from medium were collected. […] In contract, as the dosage of 25-OHC increased, more APP was found in the cell lysate fraction.

APP trafficking in cells = experiment: Trafficking of antibody-labelled surface APP (fixed time points, time-lapse); format: cell-based; conditions: 25-OHC treated vs untreated cells; in untreated cells signal disappeared within 6 hours
Experimental: FIGS. 10A-10C show images depicting increased retention time of APP inside cells after treatment with 25-OHC. […] Cells were fixed at different time points to check the distribution of APP at specific time.
We went on to check the trafficking of APP protein. Surface APP were labeled by antibody, and cells were put back to incubator and fixed at different time point for staining.

[2] = tested on: APP over-expression SH-SY5Y cell line; experiment: ELISA measurement of Aβ42 in exosomes collected from cell culture medium; format: cell-based, human; conditions: different concentration of 25-OHC; three independent experiments
Experimental: ELISA measurement of Aβ42 in exosomes collected from cell culture medium with different concentration of 25-OHC treatment. Data are representative of three independent experiments. *p<0.05.
as §2
Quantification of Aβ42 was carried out with ELISA kit (Millipore) according to the manufactures' instructions.
Data are representative of three independent experiments.

APP/PS1 mice = conditions: 2-month-old, injected every other day for 1 month, vs saline
Experimental: Mice at 2-month-old were injected with 25-OHC or saline as control every other day for duration of 1 month. Brains from these mice were sectioned and stained for amyloid-beta.
All experiments were performed with mice 3-4 months old and approved by the Institutional Animal Care and Use Committee of NUS.
Tissues were fixed in 4% paraformaldehyde, dehydrated, penetrated and paraffin embedded. […] For immunofluorescence (IF) or immunohistochemistry (IHC), sections were rehydrated and stained with primary antibody against Aβ (Cell signaling), followed by incubation with fluorescence-conjugated secondary antibodies (Invitrogen).

[3] = tested on: APP over-expression SH-SY5Y cell line; experiment: FACS analysis of surface APP; format: cell-based, human; conditions: 25-OHC treated vs control cells
Experimental: as §1
More amounts of APP were detected on the cell surface of cells overexpressing APP after 25-OHC treatment.

SH-SY5Y cells = conditions: co-treatment with 25-OHC, cells lysed 24 h later, blotted for APP

Row | SMILES | cellular APP (cell lysate, Western blot) ([1]; APP over-expression SH-SY5Y cells) | exosomal APP (Western blot) ([1]; exosomes from medium) | trafficking / retention of APP in cells (APP trafficking in cells) | Aβ42 in exosomes (ELISA) [2] | amount of Aβ in brain (plaque staining) (APP/PS1 mice) | amount of APP on cell surface (FACS) [3] | effect on 25-OHC induced increase of cellular APP (SH-SY5Y cells)
1 | C[C@H](CCCC(C)(C)O)[C@H]1CC[C@H]2[C@@H]3CC=C4C[C@@H](O)CC[C@]4(C)[C@H]3CC[C@]12C [25-OHC, 25-hydroxylated cholesterol] | dosage dependent effect to increase cellular APP | decreasing exosomal APP | the trafficking of APP was slower | increased Aβ42 in exosomes | significant high amount of Aβ | increased the amount of APP on cell surface | –
2 | CC(C)(C)C(=O)OCC(=O)[C@@]1(O)CC[C@H]2[C@@H]3CCC4=CC(=O)C=C[C@]4(C)[C@H]3[C@@H](O)C[C@@]21C [prednisolone trimethylacetate] | – | – | – | – | – | – | had no effect
